In brackets after ≈: the same amount, converted by molar mass. Where two headings read alike, the source gives them in different places.
Tests used:
Type in all cases: cell-based
[1] = tested on: Escherichia coli NIHJ; experiment: MIC against Escherichia coli NIHJ
Source text: (§1) Below are described the antibacterial activities of the compounds in the compositions according to this invention.
(§2) The testing method complied with the standard method of Japan Sociaty of Chemotherapy.

[2] = tested on: Staphylococcus aureus FDA 209P; experiment: MIC against Staphylococcus aureus FDA 209P
Source text: as §1, §2

[3] = tested on: Desulfovibrio desulfuricans IFO 13699; experiment: MIC against Desulfovibrio desulfuricans
Source text: as §1, §2

[4] = Escherichia coli, Table 2, derivatives having a carboxylate radical, heart infusion agar, 37° C., 24 hours, read-out: MIC
[5] = Staphylococcus aureus, FDA209P, 24 h
[6] = Desulfovibrio desulfuricans, IFO13699, 24 h
[7] = Table 1, azaalkenelactams, heart infusion agar, 37° C., 24 hours
[8] = Table 2, derivatives having a carboxylate radical, heart infusion agar, 37° C., 24 hours
[9] = Staphylococcus aureus, FDA209P, Table 2, derivatives having a carboxylate radical, heart infusion agar, 37° C., 24 hours, read-out: MIC
[10] = Escherichia coli, Table 1, azaalkenelactams, heart infusion agar, 37° C., 24 hours, read-out: MIC
[11] = Staphylococcus aureus, FDA209P, Table 1, azaalkenelactams, heart infusion agar, 37° C., 24 hours, read-out: MIC

Row | Compound | MIC [2, 5] | MIC [3, 6] | MIC ([1]; Escherichia coli, 24 h) | other results
1 | CCCCCCCCCCCC(=O)OCCN1CC[N+](CC(=O)[O-])=C(C)CC1=O [4-lauroyloxyethyl-7-methyl-1-azonia-4-azacyclohept-7-en-5-one-1-acetate] | 400 µg/mL (≈ 974 µM) | 25 µg/mL (≈ 60.9 µM) | – | MIC [1, 4]: 3200 µg/mL (≈ 7790 µM)
2 | CCCCCCCCCCCCCCNCCN1CCC[N+](C(C)C(=O)[O-])=CC(C)(C)C1=O (stereo not drawn) [1-tetradecylaminoethyl-3,3-dimethyl-1-aza-5-azoniacyclooct-4-en-2-one-5-propionate] | 12.5 µg/mL (≈ 26.8 µM) | 6.25 µg/mL (≈ 13.4 µM) | 100 µg/mL (≈ 215 µM) | –
3 | CCCCCCCCCCCCN1CCC[N+](CC(=O)[O-])=CC(C)C1=O (stereo not drawn) [1-dodecyl-3-methyl-1-aza-5-azoniacyclooct-4-en-2-one-5-acetate] | 50 µg/mL (≈ 136 µM) | 25 µg/mL (≈ 68.2 µM) | – | MIC [1, 4]: 1600 µg/mL (≈ 4370 µM)
4 | CCCCCCCCC=CCCCCCCCCN1CCN=CCCC1=O [Example 55, 4-(9-octadecenyl)-2,3,6,7-tetrahydro-1,4-diazocin-5-one] | 100 µg/mL (≈ 266 µM) | 50 µg/mL (≈ 133 µM) | 200 µg/mL (≈ 531 µM) | –
5 | CCCCCCCCCCCCNCCCN1CCC[N+](CC(=O)[O-])=C(C)CC1=O [1-dodecylaminopropyl-4-methyl-1-aza-5-azoniacyclooct-4-en-2-one-5-acetate] | 12.5 µg/mL (≈ 29.5 µM) | 50 µg/mL (≈ 118 µM) | 100 µg/mL (≈ 236 µM) | –
6 | CCCCCCCCCCC(O)CN1CCN=CC(C)C1=O (stereo not drawn) [Example 43, 4-(2-hydroxy)dodecyl-6-methyl-3,6-dihydro-2H-1,4-diazepin-5-one] | 12.5 µg/mL (≈ 40.3 µM) | 12.5 µg/mL (≈ 40.3 µM) | 400 µg/mL (≈ 1290 µM) | –
7 | CCCCCCCCCc1ccc(OCCOCCN2CCCN=CC(C)(C)C2=O)cc1 [Example 62, 1-nonylphenylpoly(2 moles)oxyethyleneoxyethyl-3,3-dimethyl-6,7,8-trihydro-1,5-diazocin-5-one] | 100 µg/mL (≈ 225 µM) | 50 µg/mL (≈ 112 µM) | 200 µg/mL (≈ 450 µM) | –
8 | CCCCCCCCCCCCN1CCN=CC(C)C1=O (stereo not drawn) [Example 42, 4-dodecyl-6-methyl-3,6-dihydro-2H-1,4-diazepin-5-one] | 12.5 µg/mL (≈ 42.4 µM) | 6.25 µg/mL (≈ 21.2 µM) | 400 µg/mL (≈ 1360 µM) | –
9 | CCCCCCCCCCCCCCCCCCCCCC(=O)OCCCN1CCCN=C(C)CC1=O [Example 25, 1-behenoyloxypropyl-4-methyl-3,6,7,8-tetrahydro-1,5-diazocin-2-one] | – | – | – | MIC [1, 7]: 1600 µg/mL (≈ 3070 µM); MIC [2]: 200 µg/mL (≈ 384 µM); MIC [3]: 50 µg/mL (≈ 96 µM)
10 | CCCCCCCCCCCCC(O)CNCCN1CCN=C(C)CC1=O (stereo not drawn) [Example 28, 4-(2-hydroxytetradecyl)aminoethyl-7-methyl-3,6-dihydro-2H-1,4-diazepin-5-one] | 25 µg/mL (≈ 65.5 µM) | – | 25 µg/mL (≈ 65.5 µM) | MIC ([3]; Desulfovibrio desulfuricans, IFO13699, Table 1, azaalkenelactams, heart infusion agar, 37° C., 24 hours, read-out: MIC): 12.5 µg/mL (≈ 32.8 µM)
11 | CCCCCCCCc1ccc(OCCOC(C)COC(C)CN2CCN=C(C)CC2=O)cc1 (stereo not drawn) [Example 19] | 50 µg/mL (≈ 105 µM) | 25 µg/mL (≈ 52.7 µM) | 400 µg/mL (≈ 843 µM) | –
12 | 4-(2-hydroxyhexadecyl)aminoethyl-6-methyl-1-azonia-4-azacyclohept-7-en-5-one-1-acetate | – | – | – | MIC [1]: 100 µg/mL; MIC [2]: 12.5 µg/mL; MIC [3, 8]: 3.12 µg/mL
13 | 1-behenoyloxypropyl-3-methyl-1-aza-5-azoniacyclooct-4-en-2-one-5-acetate | – | – | – | MIC [1]: 100 µg/mL; MIC [2]: 50 µg/mL; MIC [3]: 25 µg/mL
14 | CCCCCCCCCCCCOCC(O)CN1CCC[N+](C(C)C(=O)[O-])=C(C)CC1=O (stereo not drawn) [1-docoxy(2-hydroxy)propyl-4-methyl-1-aza-5-azoniacyclooct-4-en-2-one-5-propionate] | 25 µg/mL (≈ 55 µM) | 12.5 µg/mL (≈ 27.5 µM) | – | MIC [1, 4]: 800 µg/mL (≈ 1760 µM)
15 | CCCCCCCCCCCCCCNCCN1CC[N+](CC(=O)[O-])=CCCC1=O [4-tetradecylaminoethyl-4-aza-1-azoniacyclooct-8-en-5-one-1-acetate] | – | 6.25 µg/mL (≈ 14.8 µM) | 100 µg/mL (≈ 236 µM) | MIC [2, 9]: 3.12 µg/mL (≈ 7.36 µM)
16 | CCCCCCCC(=O)NCCN1CC[N+](C(C)C(=O)[O-])=CCCC1=O (stereo not drawn) [4-octamidoethyl-4-aza-1-azoniacyclooct-8-en-5-one-1-propionate] | 400 µg/mL (≈ 1090 µM) | 50 µg/mL (≈ 136 µM) | 200 µg/mL (≈ 544 µM) | –
17 | 1-coconutalkyl-4-methyl-3,6,7,8-tetrahydro-1,5-diazocin-2-one [Example 15] | – | – | – | MIC [1, 7]: 1600 µg/mL; MIC [2]: 50 µg/mL; MIC [3]: 6.25 µg/mL

Row | Compound | MIC [2, 5] | MIC [3, 6] | MIC ([1]; Escherichia coli, 24 h) | other results
18 | CCCCCCCCCCCCCCCCCCCCCCNCCN1CCN=C(C)CC1=O [Example 22, 4-docosylaminoethyl-7-methyl-3,6-dihydro-2H-1,4-diazepin-5-one] | 25 µg/mL (≈ 52.3 µM) | 12.5 µg/mL (≈ 26.2 µM) | – | MIC [1, 10]: 800 µg/mL (≈ 1670 µM)
19 | 1-(2-hydroxy)dodecyl-3-methyl-1-aza-5-azoniacyclooct-4-en-2-one-5-acetate | – | – | – | MIC [1, 8]: 1600 µg/mL; MIC [2]: 100 µg/mL; MIC [3]: 50 µg/mL
20 | CCCCCCCCCCCCN1CC[N+](CC(=O)[O-])=CC(C)C1=O (stereo not drawn) [4-dodecyl-6-methyl-1-azonia-4-azacyclohept-7-en-5-one-1-acetate] | 25 µg/mL (≈ 70.9 µM) | 25 µg/mL (≈ 70.9 µM) | – | MIC [1, 4]: 800 µg/mL (≈ 2270 µM)
21 | CCCCCCCCCc1ccc(OCC(O)CNCCNCCNCCN2CC[N+](CC(=O)[O-])=CC(C)C2=O)cc1 (stereo not drawn) [4-nonylphenoxy(2-hydroxy)propylaminoethylaminoethylaminoethyl-6-methyl-1-azonia-4-azacyclohept-7-en-5-one-1-acetate] | 200 µg/mL (≈ 339 µM) | 50 µg/mL (≈ 84.8 µM) | 400 µg/mL (≈ 678 µM) | –
22 | CCCCCCCCCCC(O)CN1CC[N+](CC(=O)[O-])=C(C)CC1=O (stereo not drawn) [4-(2-hydroxy)dodecyl-7-methyl-1-azonia-4-azacyclohept-7-en-5-one-1-acetate] | 100 µg/mL (≈ 271 µM) | 6.25 µg/mL (≈ 17 µM) | 200 µg/mL (≈ 543 µM) | –
23 | 1-(2-hydroxyhexadecyl)aminoethyl-3-methyl-1-aza-5-azoniacyclooct-4-en-2-one-5-acetate | – | – | – | MIC [1]: 100 µg/mL; MIC [2]: 12.5 µg/mL; MIC [3]: 6.25 µg/mL
24 | CCCCCCC(O)CC=CCCCCCCCC(=O)OC(C)CN1CCC[N+](CC(=O)[O-])=C(C)CC1=O (stereo not drawn) | 50 µg/mL (≈ 93.2 µM) | 25 µg/mL (≈ 46.6 µM) | – | MIC [1, 4]: 1600 µg/mL (≈ 2980 µM)
25 | CCCCCCCCCCCCN1CCN=C(C)CC1=O [Example 1, 4-dodecyl-7-methyl-3,6-dihydro-2H-1,4-diazepin-5-one] | – | 6.25 µg/mL (≈ 21.2 µM) | – | MIC [1, 10]: 1600 µg/mL (≈ 5430 µM); MIC [2, 11]: 50 µg/mL (≈ 170 µM)
26 | CCCCCCCCCc1ccc(OCC(O)CNCCNCCNCCN2CC[N+](CC(=O)[O-])=CCC(C)C2=O)cc1 (stereo not drawn) [4-nonylphenoxy(2-hydroxy)propylaminoethylaminoethylaminoethyl-6-methyl-4-aza-1-azoniacyclooct-8-en-5-one-1-acetate] | 200 µg/mL (≈ 331 µM) | 50 µg/mL (≈ 82.8 µM) | 400 µg/mL (≈ 662 µM) | –
27 | CCCCCCCCCCC(O)CN1CC[N+](CC(=O)[O-])=CC(C)C1=O (stereo not drawn) [4-(2-hydroxy)dodecyl-6-methyl-1-azonia-4-azacyclohept-7-en-5-one-1-acetate] | 25 µg/mL (≈ 67.8 µM) | 25 µg/mL (≈ 67.8 µM) | – | MIC [1, 4]: 800 µg/mL (≈ 2170 µM)
28 | CCCCCCC(O)CC=CCCCCCCCC(=O)OC(C)CN1CCCN=C(C)CC1=O (stereo not drawn) [Example 21] | 50 µg/mL (≈ 104 µM) | 25 µg/mL (≈ 52.2 µM) | – | MIC [1, 10]: 800 µg/mL (≈ 1670 µM)
29 | CCCCCCCC(=O)OCCN1CC[N+](CC(=O)[O-])=C(C)CC1=O [4-octoyloxyethyl-7-methyl-1-azonia-4-azacyclohept-7-en-5-one-1-acetate] | – | 50 µg/mL (≈ 141 µM) | – | MIC [1, 4]: 3200 µg/mL (≈ 9030 µM); MIC [2, 9]: 800 µg/mL (≈ 2260 µM)
30 | CCCCCCCC/C=C\CCCCCCCC(=O)NCCN1CCN=C(C)CC1=O [Example 10, 4-oleamidoethyl-7-methyl-3,6-dihydro-2H-1,4-diazepin-5-one] | 50 µg/mL (≈ 115 µM) | 6.25 µg/mL (≈ 14.4 µM) | – | MIC [1, 10]: 1600 µg/mL (≈ 3690 µM)
31 | CCCCCCCCCCCCCCCCCCCCCC(=O)OCCN1CCN=CCCC1=O [Example 57, 4-behenoyloxyethyl-2,3,6,7-tetrahydro-1,4-diazocin-5-one] | 100 µg/mL (≈ 203 µM) | 12.5 µg/mL (≈ 25.4 µM) | 100 µg/mL (≈ 203 µM) | –
32 | CCCCCCCC/C=C\CCCCCCCCNCCCNC(=O)CCCCCCC/C=C\CCCCCCCC [Oleylaminopropyl oleamide, oleylaminopropyloleamide, reference compound] | – | 100 µg/mL (≈ 170 µM) | – | MIC [1, 10]: ≥ 10000 µg/mL; MIC [2, 11]: ≥ 10000 µg/mL
33 | CCCCCCCCCCCCCCC(O)CNCCN1CC[N+](CC(=O)[O-])=CCCC1=O (stereo not drawn) [4-(2-hydroxyhexadecyl)aminoethyl-4-aza-1-azoniacyclooct-8-en-5-one-1-acetate] | 12.5 µg/mL (≈ 26.7 µM) | 6.25 µg/mL (≈ 13.4 µM) | 100 µg/mL (≈ 214 µM) | –

From US4346087A, “Antibacterial surface active agent containing azaalkenelactam” (priority 1979, dated 1982)
